# Test results published in ChEMBL document CHEMBL5226282, “TLR2 Agonistic Small Molecules: Detailed Structure-Activity Relationship, Applications, and Future Prospects” (J Med Chem, 2021).
# Molecular target: Toll-like receptor 2 (Homo sapiens, UniProt O60603)
# Experiment: Agonist activity at human TLR2 transfected in HEK293 cells
# Format: cell-based
# Settings: not given
# Toll-like receptor 2, sequence (O60603 whole entry): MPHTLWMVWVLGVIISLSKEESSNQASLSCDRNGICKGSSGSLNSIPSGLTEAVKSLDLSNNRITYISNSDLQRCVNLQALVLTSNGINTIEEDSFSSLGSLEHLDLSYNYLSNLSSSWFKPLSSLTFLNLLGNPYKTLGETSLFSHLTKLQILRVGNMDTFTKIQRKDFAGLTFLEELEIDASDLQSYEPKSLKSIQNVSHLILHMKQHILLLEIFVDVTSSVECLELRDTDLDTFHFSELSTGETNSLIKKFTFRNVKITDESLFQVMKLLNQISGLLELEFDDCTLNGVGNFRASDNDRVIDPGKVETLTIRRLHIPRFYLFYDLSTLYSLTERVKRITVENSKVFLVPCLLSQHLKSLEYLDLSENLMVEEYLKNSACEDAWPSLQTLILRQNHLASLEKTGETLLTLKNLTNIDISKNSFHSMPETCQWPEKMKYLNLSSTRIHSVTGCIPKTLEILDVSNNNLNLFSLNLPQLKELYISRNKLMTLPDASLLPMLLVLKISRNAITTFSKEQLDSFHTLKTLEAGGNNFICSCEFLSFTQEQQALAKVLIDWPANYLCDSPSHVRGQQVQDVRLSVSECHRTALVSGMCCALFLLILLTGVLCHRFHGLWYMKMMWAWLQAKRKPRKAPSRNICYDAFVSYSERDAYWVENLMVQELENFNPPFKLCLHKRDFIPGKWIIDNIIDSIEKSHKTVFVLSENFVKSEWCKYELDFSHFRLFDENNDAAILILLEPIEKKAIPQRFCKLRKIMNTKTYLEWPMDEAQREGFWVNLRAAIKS
row,Compound,EC50 [nM]
1,CCCCCCCCCCCC(=O)OC[C@H](CSC[C@@H](N)C(=O)NCCCOCCCCOCCCCN)OC(=O)CCCCCCCCCCC,810
2,CCCCCCCCCCCC(=O)OC[C@H](CSC[C@@H](N)C(=O)NCCCn1ccnc1)OC(=O)CCCCCCCCCCC,410
3,CCCCCCCCCCCC(=O)OC[C@H](CSC[C@@H](N)C(=O)NCCOCCOCCOCCP(=O)(O)O)OC(=O)CCCCCCCCCCC,270
4,CCCCCCCCCCCC(=O)OC[C@H](CSC[C@@H](N)C(=O)NCCCCCCCCCC(=O)O)OC(=O)CCCCCCCCCCC,4400
5,CCCCCCCCCCCC(=O)OC[C@H](CSC[C@@H](N)C(=O)NCCCCCCN)OC(=O)CCCCCCCCCCC,1220
6,CCCCCCCCCCCC(=O)OC[C@H](CSC[C@@H](N)C(=O)NCCCOCCOCCOCCCNC(=O)C(N)CS)OC(=O)CCCCCCCCCCC (some centres undefined),247
7,CCCCCCCCCCCC(=O)OC[C@H](CSC[C@@H](N)C(=O)NCCCCN)OC(=O)CCCCCCCCCCC,1040
8,CCCCCCCCCCCC(=O)OC[C@H](CSC[C@@H](N)C(=O)NCCOCCOCCOCCC(=O)O)OC(=O)CCCCCCCCCCC,900

# Molecular target: Toll-like receptor 2 (Mus musculus) (UniProt Q9QUN7)
# Sequence (Q9QUN7 whole entry): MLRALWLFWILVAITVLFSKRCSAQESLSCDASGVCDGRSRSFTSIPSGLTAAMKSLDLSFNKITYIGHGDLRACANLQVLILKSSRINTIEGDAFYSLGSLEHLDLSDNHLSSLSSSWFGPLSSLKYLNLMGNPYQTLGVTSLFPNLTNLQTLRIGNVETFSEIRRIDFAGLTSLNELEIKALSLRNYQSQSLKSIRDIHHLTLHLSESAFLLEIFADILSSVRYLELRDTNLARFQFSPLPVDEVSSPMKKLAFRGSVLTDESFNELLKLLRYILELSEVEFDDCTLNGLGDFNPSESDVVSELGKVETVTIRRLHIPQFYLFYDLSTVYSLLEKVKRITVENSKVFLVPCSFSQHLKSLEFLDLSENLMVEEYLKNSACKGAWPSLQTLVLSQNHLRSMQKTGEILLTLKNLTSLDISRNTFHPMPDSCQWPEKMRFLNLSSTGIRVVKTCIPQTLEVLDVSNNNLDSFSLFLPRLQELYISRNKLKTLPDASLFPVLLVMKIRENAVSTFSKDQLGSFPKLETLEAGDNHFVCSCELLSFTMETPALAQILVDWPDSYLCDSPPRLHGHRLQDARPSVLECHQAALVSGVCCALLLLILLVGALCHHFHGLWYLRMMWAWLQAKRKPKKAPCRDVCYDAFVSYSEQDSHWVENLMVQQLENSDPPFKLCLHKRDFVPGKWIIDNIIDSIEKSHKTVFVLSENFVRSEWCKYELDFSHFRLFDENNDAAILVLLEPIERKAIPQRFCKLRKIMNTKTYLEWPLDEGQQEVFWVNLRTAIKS
# Experiment: Agonist activity at mouse TLR2 transfected in HEK293 cells relative to control
# Format: cell-based
# Parameters: concentration or dose not given beside the values
# Settings: not given
row,Compound,Activity [%]
1,CCCCCCCCCCCCCC(=O)N[C@H](CSCC(COC(=O)CCCCC)OC(=O)CCCCC)C(=O)N[C@@H](CO)C(=O)N[C@@H](CCCCN)C(=O)N[C@@H](CCCCN)C(=O)N[C@@H](CCCCN)C(=O)N[C@@H](CCCCN)C(=O)O (some centres undefined),0
2,CCCCCC(=O)N[C@H](CSCC(COC(=O)CCCCC)OC(=O)CCCCC)C(=O)N[C@@H](CO)C(=O)N[C@@H](CCCCN)C(=O)N[C@@H](CCCCN)C(=O)N[C@@H](CCCCN)C(=O)N[C@@H](CCCCN)C(=O)O (some centres undefined),0
3,CCCCCCCCCCCCCCCC(=O)N[C@H](CSCC(COC(=O)CC)OC(=O)CC)C(=O)N[C@@H](CO)C(=O)N[C@@H](CCCCN)C(=O)N[C@@H](CCCCN)C(=O)N[C@@H](CCCCN)C(=O)N[C@@H](CCCCN)C(=O)O (some centres undefined),26
4,CCCCCCCC(=O)OCC(CSC[C@@H](NC(=O)CCCCC)C(=O)N[C@@H](CO)C(=O)N[C@@H](CCCCN)C(=O)N[C@@H](CCCCN)C(=O)N[C@@H](CCCCN)C(=O)N[C@@H](CCCCN)C(=O)O)OC(=O)CCCCCCC (some centres undefined),11
5,CCC(=O)OCC(CSC[C@@H](NC(=O)Cc1ccccc1)C(=O)N[C@@H](CO)C(=O)N[C@@H](CCCCN)C(=O)N[C@@H](CCCCN)C(=O)N[C@@H](CCCCN)C(=O)N[C@@H](CCCCN)C(=O)O)OC(=O)CC (some centres undefined),0
6,CCCCCC(=O)N[C@H](CSCC(COC(=O)CC)OC(=O)CC)C(=O)N[C@@H](CO)C(=O)N[C@@H](CCCCN)C(=O)N[C@@H](CCCCN)C(=O)N[C@@H](CCCCN)C(=O)N[C@@H](CCCCN)C(=O)O (some centres undefined),11
7,CCCCCCCC(=O)OCC(CSC[C@@H](NC(=O)Cc1ccccc1)C(=O)N[C@@H](CO)C(=O)N[C@@H](CCCCN)C(=O)N[C@@H](CCCCN)C(=O)N[C@@H](CCCCN)C(=O)N[C@@H](CCCCN)C(=O)O)OC(=O)CCCCCCC (some centres undefined),11

# Same assay, conditions: filed as agonist
row,Compound,Activity [%]
1,CCCCCCCCCCCCCCCC(=O)OCC(CSC[C@@H](NC(=O)CCCCCCCCC)C(=O)N[C@@H](CO)C(=O)N[C@@H](CCCCN)C(=O)N[C@@H](CCCCN)C(=O)N[C@@H](CCCCN)C(=O)N[C@@H](CCCCN)C(=O)O)OC(=O)CCCCCCCCCCCCCCC (some centres undefined),> 100
2,CCCCCCCCCCCCCCCC(=O)OCC(CSC[C@@H](NC(=O)CCCCCCCCCCCCC)C(=O)N[C@@H](CO)C(=O)N[C@@H](CCCCN)C(=O)N[C@@H](CCCCN)C(=O)N[C@@H](CCCCN)C(=O)N[C@@H](CCCCN)C(=O)O)OC(=O)CCCCCCCCCCCCCCC (some centres undefined),> 100
3,CCCCCCCCCCCCCCCC(=O)OCC(CSC[C@@H](NC(=O)CCCCC)C(=O)N[C@@H](CO)C(=O)N[C@@H](CCCCN)C(=O)N[C@@H](CCCCN)C(=O)N[C@@H](CCCCN)C(=O)N[C@@H](CCCCN)C(=O)O)OC(=O)CCCCCCCCCCCCCCC (some centres undefined),> 100
4,CCCCCCCCCCCCCCCC(=O)OCC(CSC[C@@H](NC(=O)Cc1ccccc1)C(=O)N[C@@H](CO)C(=O)N[C@@H](CCCCN)C(=O)N[C@@H](CCCCN)C(=O)N[C@@H](CCCCN)C(=O)N[C@@H](CCCCN)C(=O)O)OC(=O)CCCCCCCCCCCCCCC (some centres undefined),> 100
